Test results published in US20240352010A1, “SUBSTITUTED 1,2,4-THIADIAZOLYL NICOTINAMIDES, SALTS OR N-OXIDES THEREOF AND THEIR USE AS HERBICIDALLY ACTIVE SUBSTANCES” (BayerAktiengesellschaft, priority 2021, published 2024).

Test system: Digitaria sanguinalis (DIGSA)
Test: Herbicidal post-emergence action, DIGSA
Type: in vivo
Settings: 1280 g/ha, assessed visually after ca. 3 weeks vs untreated controls (Table B12)
Excerpt: Seeds of mono- and dicotyledonous weed plants were sown in plastic pots (double sowings with one species of mono- and one species of dicotyledonous weed plants per pot), in sandy loam, covered with soil and grown under controlled growth conditions. 2 to 3 weeks after sowing, the test plants were sprayed in the single-leaf stage. The compounds according to the invention, formulated in the form of wettable powders (WP) or as emulsifiable concentrates (EC), were sprayed onto the green plant parts as an aqueous suspension or as an emulsion, with the addition of 0.5% of an additive, at an application rate of 600 litres of water per hectare (converted). The test plants were placed in the greenhouse for ca. 3 weeks under optimum growth conditions, and then the effect of the preparations is assessed visually in comparison with untreated controls (herbicidal effect in percent (%): 100% effect=plants have died, 0% effect=as control plants).

O=C(Nc1ncns1)c1c(C2CC2)ccnc1F [Example I-005]
herbicidal effect in percent, DIGSA: 100%
